Test results taken from PMC9845330 (Communications Biology, 2023).
Non-standard residues stand in square brackets, D forms with d. Residues, ends and D or L forms follow the SMILES beside them. *: point of attachment. X1 = O=C(CCCC[C@@H]1SC[C@@H]2NC(=O)N[C@@H]21)NCCCOCCOCCOCCCN*; PEG12 = NCCOCCOCCOCCOCCOCCOCCOCCOCCOCCOCCOCCOCCC(=O)O

Legend:
H2009 cells = experiment: Cell internalization by flow cytometry, absolute uptake (molecules per cell); type: cell-based, human; conditions: for Molecules Internalized Per Cell: Average
Description: (§1) Optimizing MGS4 as a monomer is efficient but the optimal valency of the truncated peptide may be different than that of the full-length peptide. The peptide was synthesized as a monomer (MGS4_V8), dimer (MGS4_V9), and tetramer (MGS4_V10). To obtain quantitative data, we moved from measuring the relative fluorescence of dye-labeled peptide to the determination of the average number of dye molecules internalized per cell. […] The dimer MGS4_V9 has an EC50 7-fold lower indicating there is a synergistic effect in going from a monomer to a dimer (Fig. 2a and Table 2). However, there is only a 2-fold decrease in going from a dimer to a tetrameric peptide (MGS4_V10). We also calculated the EC50 on three other NSCLC cell lines (Table 2 and Supplementary Figure 3). […] The average number of peptides internalized per cell at saturating conditions varies, with H1993 cells internalizing the highest number of peptides at all three valencies (Table 2). This is likely due to differing levels of receptor expression on the cell type. The average molecules internalized at 50 nM in one hour follows the same trend (Fig. 2b).
(§2) Biotinylated peptide was conjugated to streptavidin-R-phycoerythrin or streptavidin-Alexa Fluor 647 (1:1 molar ratio) for 30 min. The open binding sites on streptavidin were quenched with RPMI 1640 and diluted to the indicated concentration. Tumor cells were grown to 90% confluency in a 12 well plate, then incubated with 500 µl peptide-dye conjugate at 37 °C. After 1 h, peptide was removed, and the cells were washed 3x with PBS (137 mM NaCl, 2.7 mM KCl, 10 mM Na2HPO4, 1.8 mM KH2PO4, pH 7.4), 2x with 0.1 M HCl-glycine pH2.2 in 0.9% NaCl, and 1x PBS rinse. Cells were removed by trypsinization. Flow cytometry was performed on a BD FACSCelesta, and data were analyzed on Flowing software. Cells were gated based on the forward and side scatter to include only viable cells and a minimum of 10,000 events were counted. A region containing <5% of the cells in the negative control was established, and relative peptide uptake by the mean fluorescence intensity of that population. For absolute peptide uptake per cell, a standard curve was generated using Quantum™ Alexa Fluor 647 microspheres (Bangs Laboratory, Fishers, IN). A representative linear regression showing the correlation of molecule equivalents soluble fluorophores (MESF) vs the mean fluorescence intensity (MFI) is shown in Supplemental Figure 6. Cells were gated based on the forward and side scatter to include only viable cells and a minimum of 10,000 events were counted. MFI was determined at 50% at peak height. Molecules internalized per cell were determined by the standard curve relating MESF to MFI and divided by the number dye molecules/MGS conjugate. An example is shown in supplemental Figure 7. GraphPad Prism® was used for non-linear regression curve fitting to calculate an EC50. Parameters and statistical analysis are provided (Supplementary Tables 2–6). Experiments were repeated a minimum of three times.
(§3) For all EC50 determinations, each peptide variant was tested on the indicated cell line with a minimum of 3 biological replicates and analyzed individually by flow cytometry. The standard error measurement for each concentration is indicated by error bars in the figures. For experiments in which absolute number of molecules internalized was measured at different concentrations, EC50 were determined by GraphPad Prism® using nonlinear regression curve fitting for log(agonist) vs. response–Variable slope (four parameters). For the truncation experiments, EC50 were determined using one-site-specific binding. Similarly, IC50s were calculated using GraphPad Prism® using log(agonist) vs. response–Variable slope (four parameters). A minimum of four biological replicates were performed for each variant and cell line. Data for individual experiments are included in supplementary files. Parameters and statistical analysis are provided in Supplementary Tables 2–7. […]

H1993 cells = experiment: as above; type: cell-based, human; conditions: for Molecules Internalized Per Cell: Average
Description: as §1, §2, §3

[1] = test system: normal human bronchial epithelial cell line (HBEC); experiment: Cell internalization by flow cytometry in normal control cells; type: cell-based; conditions: 50 nM, 1 h
Description: Optimizing MGS4 as a monomer is efficient but the optimal valency of the truncated peptide may be different than that of the full-length peptide. The peptide was synthesized as a monomer (MGS4_V8), dimer (MGS4_V9), and tetramer (MGS4_V10). To obtain quantitative data, we moved from measuring the relative fluorescence of dye-labeled peptide to the determination of the average number of dye molecules internalized per cell. […] The dimer MGS4_V9 has an EC50 7-fold lower indicating there is a synergistic effect in going from a monomer to a dimer (Fig. 2a and Table 2). However, there is only a 2-fold decrease in going from a dimer to a tetrameric peptide (MGS4_V10). We also calculated the EC50 on three other NSCLC cell lines (Table 2 and Supplementary Figure 3). […]
Non-internalized peptide was removed, and the mean number of peptides internalized per cell was determined to calculate the EC50. […] Error bars, in black, represent standard error measurements and are below the height of the symbols in some cases. b The average number of peptide molecules per cell at 50 nM at 1 h was determined on four NSCLC cell lines and one normal human bronchial epithelial cell line (HBEC). […]
Biotinylated peptide was conjugated to streptavidin-R-phycoerythrin or streptavidin-Alexa Fluor 647 (1:1 molar ratio) for 30 min. […] Flow cytometry was performed on a BD FACSCelesta, and data were analyzed on Flowing software. […]

CC(=O)N[C@@H](Cc1ccccc1)C(=O)N[C@@H](Cc1c[nH]cn1)C(=O)N[C@@H](C)C(=O)N[C@H](C(=O)N1CCC[C@H]1C(=O)N[C@@H](CCC(N)=O)C(=O)N[C@@H](CO)C(=O)N[C@@H](Cc1ccccc1)C(=O)N[C@@H](Cc1ccc(O)cc1)C(=O)N[C@H](C(=O)NCCOCCOCCOCCOCCOCCOCCOCCOCCOCCOCCOCCOCCC(=O)N[C@@H](CCC(=O)NCCCOCCOCCOCCCNC(=O)CCCC[C@@H]1SC[C@@H]2NC(=O)N[C@@H]21)C(N)=O)[C@@H](C)O)C(C)C [MGS4_V8] (Ac-FHAVPQSFYT[PEG12]E(X1)-NH2)
Molecules Internalized Per Cell (H2009 cells; 1 nM): 0
Molecules Internalized Per Cell (H2009 cells; 10 nM): 1006
Molecules Internalized Per Cell (H2009 cells; 20 nM): 3516
Molecules Internalized Per Cell (H2009 cells; 30 nM): 15550
Molecules Internalized Per Cell (H2009 cells; 40 nM): 22008
Molecules Internalized Per Cell (H2009 cells; 50 nM): 28764
Molecules Internalized Per Cell (H2009 cells; 60 nM): 30384
Molecules Internalized Per Cell (H2009 cells; 80 nM): 38906
Saturation (molecules) (H2009 cells; H2009 Cells): 40,600 ± 2630 molecules
HillSlope (H2009 cells; Supplementary Table 4): 3.175
LogIC50 (H2009 cells; Supplementary Table 4): -7.424
Top (H2009 cells; Supplementary Table 4): 40633
Molecules Internalized Per Cell (H1993 cells; 0.01 nM): 0
Molecules Internalized Per Cell (H1993 cells; 1 nM): 57
Molecules Internalized Per Cell (H1993 cells; 10 nM): 3584
Molecules Internalized Per Cell (H1993 cells; 20 nM): 36850
Molecules Internalized Per Cell (H1993 cells; 30 nM): 42262
Molecules Internalized Per Cell (H1993 cells; 40 nM): 55296
Molecules Internalized Per Cell (H1993 cells; 50 nM): 88510
Molecules Internalized Per Cell (H1993 cells; 60 nM): 76327
Saturation (molecules) (H1993 cells; H1993 Cells): 119,000 ± 57,500 molecules
HillSlope (H1993 cells; Supplementary Table 6): 1.706
LogIC50 (H1993 cells; Supplementary Table 6): -7.427
Top (H1993 cells; Supplementary Table 6): 118643
internalization in normal cells [1]: minimal internalization
